Laboratory results from BindingDB's records for doi:10.1021/jm401509e (Pfizer, 2014).

Legend:
[1] = Antagonist activity at CRTh2 in human peripheral blood assessed as inhibition of PGD2-induced eosinophil shape change at room temperature by flow cytometry
[2] = Inhibition of CRTH2 receptor-mediated chemotaxis in human basophils

Cc1c(-c2cn(CCCC(F)(F)F)c(=O)c3ccccc23)c2cc(F)ccc2n1CC(=O)O
IC50 [1]: 3 nM

Cc1c(-c2cn(CC(C)(C)C)c(=O)c3ccccc23)c2cc(F)ccc2n1CC(=O)O
IC50 [1]: 18 nM

Cc1c(-c2cn(CC(F)(F)F)c(=O)c3ccccc23)c2cc(F)ccc2n1CC(=O)O
IC50 [1]: 19 nM

Cc1c(-c2cn(C(C)C)c(=O)c3ccccc23)c2cc(F)ccc2n1CC(=O)O
IC50 [2]: 1.2 nM
IC50 [1]: 8 nM
